Structures are written as SMILES.

This test relates to HCV type 1b replicon (NS3-NS5B) in Huh-7 luc/neo cells. The test can be described thus: HCV replicon assay (Huh-Luc luciferase). It counts as cell-based. The note with it: Hepatitis C virus, Huh-7, 72 h, three days incubation, luciferase activity. The text has this: The compounds of formula (I) were examined for activity in the inhibition of HCV RNA replication in a cellular assay. […] The cellular assay was based on a bicistronic expression construct, as described by Lohmann et al. (1999) Science vol. 285 pp. 110-113 with modifications described by Krieger et al. (2001) Journal of Virology 75: 4614-4624, in a multi-target screening strategy. In essence, the method was as follows.
The assay utilized the stably transfected cell line Huh-7 luc/neo (hereafter referred to as Huh-Luc). This cell line harbors an RNA encoding a bicistronic expression construct comprising the wild type NS3-NS5B regions of HCV type 1b translated from an Internal Ribosome Entry Site (IRES) from encephalomyocarditis virus (EMCV), preceded by a reporter portion (FfL-luciferase), and a selectable marker portion (neo^R, neomycine phosphotransferase). The construct is bordered by 5′ and 3′ NTRs (non-translated regions) from HCV type 1b. Continued culture of the replicon cells in the presence of G418 (neo^R) is dependent on the replication of the HCV RNA. The stably transfected replicon cells that express HCV RNA, which replicates autonomously and to high levels, encoding inter alia luciferase, are used for screening the antiviral compounds.
The replicon cells were plated in 384 well plates in the presence of the test and control compounds which were added in various concentrations. Following an incubation of three days, HCV replication was measured by assaying luciferase activity (using standard luciferase assay substrates and reagents and a Perkin Elmer ViewLux™ ultraHTS microplate imager). Replicon cells in the control cultures have high luciferase expression in the absence of any inhibitor. The inhibitory activity of the compound on luciferase activity was monitored on the Huh-Luc cells, enabling a dose-response curve for each test compound. EC50 values were then calculated, which value represents the amount of the compound required to decrease by 50% the level of detected luciferase activity, or more specifically, the ability of the genetically linked HCV replicon RNA to replicate.
The following Table 1 lists compounds that were tested for activity in the inhibition of HCV RNA replication in a cellular assay according to the procedure described above. Table 1 provides as well structure characterization data for the compounds of formula (I) as described herein. […] In each case, the expected parent ion was observed, and the Table further provides the LC conditions under which the mass spectrum was measured as well as the retention time of the observed product.
For orientation: In antiviral work, replicon cells carry a viral genome segment that copies itself.

Compound `COc1cnc(-c2cc(Cl)ccc2F)nc1Nc1ccncc1C(=O)NCCCN1CCCC1=O` [compound 1] had a 50% effective concentration (EC50) of 0.084 µM. As to `COc1cnc(-c2cc(Cl)ccc2F)nc1Nc1ccncc1C(=O)NCC(F)(F)F` [compound 2], it took 1.16 µM to reach a half-maximal effect (EC50). In the case of `COc1cnc(-c2cc(Cl)ccc2F)nc1Nc1ccncc1C(=O)NC[C@H]1CCCO1` [compound 3], the EC50 amounted to 2.64 µM.

Regarding `CCOC(=O)CNC(=O)c1cnccc1Nc1nc(-c2cc(Cl)ccc2F)ncc1OC` [compound 4], the EC50 was 4.62 µM.

In the case of `COc1cnc(-c2cc(Cl)ccc2F)nc1Nc1ccncc1C(=O)NCCCn1ccnc1` [compound 5], the concentration giving a half-maximal response (EC50) worked out at 0.921 µM. The compound `O=C(NC1CC1)c1cnccc1Nc1nc(-c2cc(Cl)ccc2F)ncc1C1CCCC1` [compound 6] showed an EC50 of 12.7 µM. Then `O=C(NCCO)c1cnccc1Nc1nc(-c2cc(Cl)ccc2F)ncc1C1CCCC1` [compound 8], with 16.4 µM; and `COc1cnc(-c2cc(Cl)ccc2F)nc1Nc1ccncc1C(=O)NCCCN1CCOCC1` [compound 9], with 1.1 µM; and `COc1cnc(-c2cc(Cl)ccc2F)nc1Nc1ccncc1C(=O)NCCNCCO` [compound 10], with 1.48 µM.

Compound `COc1cnc(-c2cc(Cl)ccc2F)nc1Nc1ccncc1C(=O)NCCNCC(C)O` (stereo not drawn) [compound 11] registered an EC50 of 1.14 µM. In turn, `COc1cnc(-c2cc(Cl)ccc2F)nc1Nc1ccncc1C(=O)NCCCN1CCCCC1C` (stereo not drawn) [compound 13] came in with an EC50 of 0.55 µM. In turn, `COc1cnc(-c2cc(Cl)ccc2F)nc1Nc1ccncc1C(=O)NCCN` [compound 14] showed a 50% effective concentration (EC50) of 3.67 µM.

Usually EC50 stands for the concentration that produces a half-maximal response. A high value points to a less potent agent.
